From patent US20210015134A1, “CONSUMABLES” (Givaudan S.A., priority 2006, published 2021)

Experiments:
Assay type in all cases: in vivo
[1] = test system: sweet sensitive panelists; assay: Comparative sensory evaluation of sweetness enhancers in sweetener solution or water (Example 1)
Procedure: Comparative sensory evaluation of sweetness enhancers in 2 or 7% sucrose
The test samples contained the potential sweetness enhancers in 0% sucrose (water), 2% sucrose, or 7% sucrose, and control samples of 0%, 2% and 7% sucrose without any additive. The sensory evaluations were conducted as follows. All samples were presented at ambient temperature in 15 ml aliquots to panels consisting of 5-9 sweet sensitive subjects of varying sweet sensitivity. After tasting each sample, the mouth was rinsed thoroughly with water at ambient temperature prior to tasting the next sample. The sucrose positive control (2% or 7%) was presented first and served as the sweetness reference to which all sweetness enhancer/sucrose combinations were directly compared.
One tasting sequence included tasting the sucrose control first, rinsing with water, tasting the sweetness enhancer/sucrose sample, rinsing with water followed by tasting the sucrose control again. Once the sequence was completed, each panelist chose the sample which was sweeter and evaluated the sweetness of each sample relative to one another.
In a second tasting sequence, this same procedure was followed for the water negative control versus the sweetness enhancer/water samples to determine the sweet taste due to the sweetness enhancer itself at each tested concentration.
Panelists evaluated the sweetness of the sweetness enhancer in water for each concentration. For their evaluation, panelists were allowed to compare any perceived sweetness of the sweetness enhancer to the 2% or 7% sucrose control to determine the relative intensity of sweetness. Mild sweet taste corresponds to the taste of 2% sucrose, strong sweet taste corresponds to the taste of 7% sucrose.
Alternatively to sucrose, the evaluation may be performed with another sweetener, for example, high fructose (55%) corn syrup (HFCS, containing 55% fructose and 45% glucose), erythritol, sucralose, aspartame, or acesulfame potassium (AceK).

[2] = test system: sweet sensitive panelists; assay: Ranking test, sweetness isointensity of enhancer in sweetener solution (Example 3a)
Procedure: Ranking Tests to Determine the Sweetness Isointensity of Sweetness Enhancers to Sucrose Solutions
For comparative ranking, samples of 0.5%, 1%, 1.5%, 7%, 8%, 9%, 10% and 11% sucrose solutions were prepared.
3a) Sweetness Isointensity of Sweetness Enhancer in Sucrose Solutions
The sensory evaluation was conducted using a ranking method. Samples at ambient temperature were randomly presented in 15 ml blind aliquots (unidentifiable by panelists). Panels consisted of 10 sweet sensitive subjects and samples were presented in 4 replications over 2 sessions. After tasting each sample, the mouth was rinsed thoroughly with water at ambient temperature prior to tasting the next sample. Panelists were presented with 7%, 8%, 9%, 10%, 11% sucrose samples and a sixth sample of 7% sucrose with a sweetness enhancer in a concentration near its sweetness detection threshold. They were asked to rank the samples from low to high with respect to perceived sweet taste. R-indices were calculated for 7% sucrose with the sweetness enhancer versus 7%, 8%, 9%, 10% or 11% sucrose.

[3] = test system: sweet sensitive panelists; assay: Ranking test, near threshold sweetness isointensity of enhancer in water (Example 3b); conditions: for isointensity to sucrose solution: 20 ppm in water, by interpolation
Procedure: The sensory evaluation was conducted using a ranking method. Samples at ambient temperature were randomly presented in 15 ml blind aliquots (unidentifiable by panelists). […] After tasting each sample, the mouth was rinsed thoroughly with water at ambient temperature prior to tasting the next sample. […] They were asked to rank the samples from low to high with respect to perceived sweet taste.

[4] = test system: sweet sensitive panelists; assay: Paired comparison of sweetness enhancers in water versus sucrose (Example 4, modified)
Procedure: Paired Comparisons of Sweetness Enhancers and Mixtures Thereof in Water and 7% Sucrose
Samples of sweetness enhancers were prepared in water or 7% sucrose. One, two or three sweetness enhancers were used in a sample. All samples were presented to panelists at ambient temperature. The sensory evaluation was conducted using a paired comparison method. […] Samples were paired randomly and presented in unidentifiable pairs of two (left and right) to the panelists in random order. The sample on the left was tasted first, followed by rinsing the mouth with water, then tasting the sample on the right. Once completing the sequence, each panelist ranked the pair of samples for sweetness then evaluated samples with respect to one another with the following descriptors (in ascending order): […]

sweet sensitive subjects = assay: Sweetness quality evaluation (time of onset, localization, duration); conditions: for Sensory evaluation of sweetness intensity: sweetness quality
Procedure: (§1) Rebaudioside A (99%+, purified from plant extract, Sweet Aloha Farms, LLC) (1 ppm, 10 ppm, 20 ppm, 30 ppm) in 2% sucrose samples was evaluated for the qualities of the sweetness of the samples (time of onset, localization, duration). The sensory evaluations were conducted as follows. All samples were presented at ambient temperature in 15 ml aliquots and presented blindly to sweet sensitive subjects of varying sweet sensitivity. Subjects tasted the samples and were asked to evaluate the quality of sweetness. Sucrose solutions (2% and 7%) were presented as references.
Rebaudioside A (99%+, purified from plant extract, Sweet Aloha Farms, LLC) (1 ppm, 10 ppm, 20 ppm, 30 ppm) in 7% sucrose samples were evaluated for the qualities of the sweetness of the samples (time of onset, localization, duration). The sensory evaluations were conducted as follows. All samples were presented at ambient temperature in 15 ml aliquots and presented blindly to sweet sensitive subjects of varying sweet sensitivity. Subjects tasted the samples and were asked to evaluate the quality of the sweetness. Sucrose solutions (2% and 7%) were presented as references to evaluate the sweetness of the rebaudioside A samples.
as §1, with “Stevioside extract (95%+,” for “Rebaudioside A (99%+,”, “Apin Chemicals) (20” for “Sweet Aloha Farms, LLC) (1 ppm, 10 ppm, 20”, “30 ppm, 40 ppm, 50” for “30”, “ppm) was evaluated” for “ppm)”, “sucrose” for “sucrose samples was evaluated”, “sweetness qualities.” for “quality of sweetness.”
Stevioside (20 ppm, 30 ppm, 40 ppm, 50 ppm) was evaluated in 7% sucrose for the qualities of the sweetness of the samples (time of onset, localization, duration). The sensory evaluations were conducted as follows. All samples were presented at ambient temperature in 15 ml aliquots and presented blindly to sweet sensitive subjects of varying sweet sensitivity. Subjects tasted the samples and were asked to evaluate the sweetness qualities. Sucrose solutions (2% and 7%) were presented as references to evaluate the sweetness of the stevioside samples.

panelists = assay: Fractionated swingle extract: comparative sensory evaluation in 0% and 2% sucrose; conditions: from fractions at 60 ppm in 2% sucrose and LC-MS analysis
Procedure: Swingle extract, comprising 80% total mogroside content by weight, was fractionated by reversed phase (C-18) flash chromatography. Compounds were eluted using a mixture of methanol (MeOH) in water starting at 30% MeOH (264 ml) followed by a linear gradient of 30-80% MeOH (1320 ml) then finally the column was flushed with 80% MeOH (264 ml). The solvents were introduced at a flow rate of 30 ml/min throughout the separation procedure. Eluted compounds were visualized with a UV detector set at 210 nm and a Corona light scattering detector. Collected fractions were pooled according to the table below then freeze dried to powders.
The powders corresponding to various pooled fractions as given in the table below were dissolved in a concentration of 60 ppm in either 0% or 2% sucrose. The sample in 0% sucrose when determined to be sweet was in addition to the 0% sucrose control also compared to a 2% sucrose control and to the other fractions to estimate the degree of sweetness.

[5] = 20 ppm in 7% sucrose vs 7% sucrose
[6] = 20 ppm in 7% sucrose vs 8% sucrose
[7] = 20 ppm in 7% sucrose vs 9% sucrose
[8] = 20 ppm in 7% sucrose vs 10% sucrose
[9] = 20 ppm in 7% sucrose vs 11% sucrose
[10] = 20 ppm in water vs 0.5% sucrose
[11] = 20 ppm in water vs 1.5% sucrose

C=C1C[C@@]23CC[C@H]4[C@@](C)(CCC[C@@]4(C)C(=O)O[C@@H]4O[C@H](CO)[C@@H](O)[C@H](O)[C@H]4O)[C@@H]2CC[C@]1(O[C@@H]1O[C@H](CO)[C@@H](O)[C@H](O[C@@H]2O[C@H](CO)[C@@H](O)[C@H](O)[C@H]2O)[C@H]1O[C@@H]1O[C@H](CO)[C@@H](O)[C@H](O)[C@H]1O)C3 [Rebaudioside A]
Sensory evaluation of sweetness intensity ([1]; 1 ppm in 2% sucrose): barely perceived as sweeter than sucrose control | Sensory evaluation of sweetness intensity ([1]; 1 ppm in 7% sucrose): very weakly sweeter than sucrose control | Sensory evaluation of sweetness intensity ([1]; 1 ppm in water (Example 8A)): no sweetness | Sensory evaluation of sweetness intensity ([1]; 1 ppm in water (Example 8B)): no sweetness | Sensory evaluation of sweetness intensity ([1]; 10 ppm in 2% sucrose): notably sweeter than sucrose control | Sensory evaluation of sweetness intensity ([1]; 10 ppm in 7% sucrose): notably sweeter than sucrose control | Sensory evaluation of sweetness intensity ([1]; 10 ppm in water (Example 8A)): barely perceivable, late onsetting sweet | Sensory evaluation of sweetness intensity ([1]; 10 ppm in water (Example 8B)): barely perceivable, late onsetting sweet | Sensory evaluation of sweetness intensity ([1]; 20 ppm in 2% sucrose): much sweeter than sucrose control | Sensory evaluation of sweetness intensity ([1]; 20 ppm in 7% sucrose): much sweeter than sucrose control | Sensory evaluation of sweetness intensity ([1]; 20 ppm in water (Example 8A)): barely perceivable sweetness | Sensory evaluation of sweetness intensity ([1]; 20 ppm in water (Example 8B)): barely perceivable sweetness | Sensory evaluation of sweetness intensity ([1]; 30 ppm in 2% sucrose): substantially sweeter than sucrose control | Sensory evaluation of sweetness intensity ([1]; 30 ppm in 7% sucrose): substantially sweeter than sucrose control | Sensory evaluation of sweetness intensity ([1]; 30 ppm in water (Example 8A)): very weak sweetness far below the 2% sucrose control | Sensory evaluation of sweetness intensity ([1]; 30 ppm in water (Example 8B)): very weak sweetness far below the 2% sucrose control | R-index [2, 5]: 91% | Rebaudioside A sample sweetness [2, 5]: sweeter | R-index [2, 6]: 72% | Rebaudioside A sample sweetness [2, 6]: sweeter | R-index [2, 7]: 7% | Rebaudioside A sample sweetness [2, 7]: less sweet | R-index [2, 8]: 0% | Rebaudioside A sample sweetness [2, 8]: less sweet | R-index [2, 9]: 0% | Rebaudioside A sample sweetness [2, 9]: less sweet | sweetness isointensity to sucrose ([2]; 20 ppm in 7% sucrose, by interpolation): 8.5 % sucrose | R-index [3, 10]: 84% | sample sweetness (RedA, 20 ppm) [3, 10]: sweeter | R-index ([3]; 20 ppm in water vs 1% sucrose): 12% | sample sweetness (RedA, 20 ppm) ([3]; 20 ppm in water vs 1% sucrose): less sweet | R-index [3, 11]: 0% | sample sweetness (RedA, 20 ppm) [3, 11]: less sweet | isointensity to sucrose solution ([3]; listed as rebaudioside): about 0.75 % sucrose | isointensity to sucrose solution ([3]; listed as rebaudioside A): 0.75 % sucrose | Result of comparison ([4]; 1 ppm in water vs 0% sucrose): isosweet | Result of comparison ([4]; 10 ppm in water vs 0% sucrose): weakly sweeter | Result of comparison ([4]; 10 ppm in water vs 0.5% sucrose): notably less sweet | Result of comparison [4, 10]: notably sweeter | Result of comparison ([4]; 20 ppm in water vs 1% sucrose): less sweet | isointensity to sucrose solution ([4]; 30 ppm in water): 1 % sucrose | Result of comparison ([4]; 30 ppm in water vs 1% sucrose): isosweet | Result of comparison ([4]; 30 ppm in water vs 1.5% sucrose): significantly less sweet | Sensory evaluation of sweetness intensity (strength, onset, localisation, duration) (sweet sensitive subjects; 1 ppm in 7% sucrose): immediate onset, full mouth sweet, non-lingering | Sensory evaluation of sweetness intensity (strength, onset, localisation, duration) (sweet sensitive subjects; 10 ppm in 7% sucrose): immediate onset, full mouth sweet, non-lingering | Sensory evaluation of sweetness intensity (strength, onset, localisation, duration) (sweet sensitive subjects; 20 ppm in 7% sucrose): immediate onset, full mouth sweet, non-lingering | Sensory evaluation of sweetness intensity (sweet sensitive subjects; 1 ppm in 2% sucrose): immediate onset, full mouth sweet, non-lingering | Sensory evaluation of sweetness intensity (sweet sensitive subjects; 10 ppm in 2% sucrose): immediate onset full mouth sweet, non-lingering | Sensory evaluation of sweetness intensity (sweet sensitive subjects; 20 ppm in 2% sucrose): immediate onset, full mouth sweet, non-lingering

C[C@H](CC[C@@H](O[C@@H]1O[C@H](CO)[C@@H](O)[C@H](O)[C@H]1O[C@@H]1O[C@H](CO)[C@@H](O)[C@H](O)[C@H]1O)C(C)(C)O)[C@H]1CC[C@@]2(C)[C@H]3CC=C4[C@@H](CC[C@H](O[C@@H]5O[C@H](CO[C@@H]6O[C@H](CO)[C@@H](O)[C@H](O)[C@H]6O)[C@@H](O)[C@H](O)[C@H]5O)C4(C)C)[C@]3(C)[C@H](O)C[C@]12C [mogroside IV]
contribution to the observed enhancement effect of swingle extract (panelists): contributing marginally

C[C@H](CC[C@@H](O[C@@H]1O[C@H](CO[C@@H]2O[C@H](CO)[C@@H](O)[C@H](O)[C@H]2O)[C@@H](O)[C@H](O)[C@H]1O[C@@H]1O[C@H](CO)[C@@H](O)[C@H](O)[C@H]1O)C(C)(C)O)[C@H]1CC[C@@]2(C)[C@@H]3CC=C4[C@@H](CC[C@H](O[C@@H]5O[C@H](CO[C@@H]6O[C@H](CO)[C@@H](O)[C@H](O)[C@H]6O)[C@@H](O)[C@H](O)[C@H]5O)C4(C)C)[C@]3(C)[C@H](O)C[C@]12C [mogroside V]
contribution to the observed enhancement effect of swingle extract (panelists): mainly due to mogroside V

C[C@H](CC[C@@H](O[C@@H]1O[C@H](CO[C@@H]2O[C@H](CO)[C@@H](O)[C@H](O)[C@H]2O)[C@@H](O)[C@H](O)[C@H]1O[C@@H]1O[C@H](CO)[C@@H](O)[C@H](O)[C@H]1O)C(C)(C)O)[C@H]1CC[C@@]2(C)[C@@H]3CC=C4[C@@H](CC[C@H](O[C@@H]5O[C@H](CO)[C@@H](O)[C@H](O)[C@H]5O)C4(C)C)[C@]3(C)[C@H](O)C[C@]12C [siamenoside I]
contribution to the observed enhancement effect of swingle extract (panelists): contributing marginally
